The results in this text go back to US8445484B2, “Bicyclic peptidomimetic inhibitors of aspartyl-proteases for the treatment of infectious diseases” (Istituto Superiore di Sanita', priority 2008, dated 2013).

For one assay, the target named is SAP2 (Candida albicans, UniProt P0DJ06). The class given is biochemical. The settings on record: 10 μm compound; relative to pepstatin; pH 3.2, 30 min at 37° C. As to the method:
Spectrophotometric method: protease activity of the various compounds of formula (I) was measured by a spectrophotometric assay with respect to pepstatin activity at the same concentration: each assay contained 50 μl of sample in 0.4 ml of 1% (w/v) BSA in 50 mM sodium citrate pH 3.2 and 50 μl of protease solution (1 μg/ml) After 30 min at 37° C. 1 ml 10% (w/v) trichloroacetic acid was added. The tubes were stored in ice for 30 min, and then centrifuged (3000 g) for 10 min. The absorbance of the supernatant was read at 280 nm. Control: 1% BSA in citrate buffer. One unit of the enzyme catalysed a ΔA280 of 1 min^−1. With the pure protease the assay was proportional to enzyme concentration over the range ΔA280 0.1-0.4 and a limit detection of 1 μg (De Bernardis F., Sullivan P. A., Cassone A. Medical Mycology 2001, 39, 303).

For a further assay, the system named is C. albicans SA40. The assay can be described thus: Experimental rat vaginal infection, C. albicans SA40 clearance. The assay is classed as in vivo, Candida albicans. The settings on record: for Candida SA40 cells in vaginal fluid (CFU/ml): oophorectomized Wistar rats, intravaginal treatment 1, 24, 48 hrs after challenge. As for the experimental part:
(§1) Experimental vaginal infection: for the experimental vaginal infection, a previously described rat vaginal model was adopted (De Bernardis, F.; Boccanera, M.; Adriani, D.; Spreghini, E.; Santoni, G.; Cassone, A. Infect. Immun., 1997, 65, 3399).
(§2) In brief, oophorectomized female Wistar rats (80-100 g; Charles River Calco, Italy) were injected subcutaneously with 0.5 mg of estradiol benzoate (Estradiolo, Amsa Farmaceutici srl, Rome, Italy). Six days after the first estradiol the animals were inoculated intravaginally with […] yeast cells in 0.1 ml of saline solution of each C. albicans strain tested. The inoculum was dispensed into the vaginal cavity through a syringe equipped with a multipurpose calibrated tip (Combitip; PBI, Milan, Italy). The yeast cells had been previously grown in YPD broth (yeast extract 1%; peptone 2%; dextrose 2%) at 28° C. on a gyrator shaker (200 rpm), harvested by centrifugation (1500 g), washed, counted in a hemocytometer, and suspended to the required number in saline solution. The number of cells in the vaginal fluid was counted by culturing 100 μl samples (using a calibrated plastic loop, Disponoic, PBI, Milan, Italy) taken from each animals, on Sabouraud agar containing chloramphenicol (50 μg/ml) as previously described. The rat was considered infected when at least 1 CFU was present in the vaginal lavage, i.e. a count of […].
(§3) Positive (pepstatin 10 μg; fluconazole 10 μg and negative (sterile saline solution) were similarly administered.

In a further assay the test system is C. albicans AIDS68. The assay can be described thus: Experimental rat vaginal infection, C. albicans AIDS68 (pharmacoresistant) clearance. The settings on record: for Candida AIDS68 cells in vaginal fluid (CFU/ml): oophorectomized Wistar rats, intravaginal treatment 1, 24, 48 hrs after challenge. The assay is classed as in vivo, Candida albicans. As to the method: as §1, §2, §3

Square brackets hold non-standard residues; d marks the D form. Peptide text beside a SMILES is read from it. * marks the point of attachment. Sta = CC(C)C[C@H](N)[C@@H](O)CC(=O)O; Isovaleryl = CC(C)CC(=O)*

Chain of SAP2 (P0DJ06 57-398): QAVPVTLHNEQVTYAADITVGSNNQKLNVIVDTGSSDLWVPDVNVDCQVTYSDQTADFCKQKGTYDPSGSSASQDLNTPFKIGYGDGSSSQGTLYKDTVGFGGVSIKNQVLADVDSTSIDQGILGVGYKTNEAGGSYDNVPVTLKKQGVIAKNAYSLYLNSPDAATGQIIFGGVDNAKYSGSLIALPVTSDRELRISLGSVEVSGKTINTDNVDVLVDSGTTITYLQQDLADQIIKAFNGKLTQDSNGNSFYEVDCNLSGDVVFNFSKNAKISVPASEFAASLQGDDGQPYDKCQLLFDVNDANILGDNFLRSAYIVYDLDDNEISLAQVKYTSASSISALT

For the compound `COC(=O)[C@H](CC(C)C)N1C[C@H]2O[C@H](C(=O)N3CCCCC3)[C@@H](O2)C1=O` [Cpd 1, (2S)-4-Methyl-2-[(1R,5S,7S)-2-oxo-7-(piperidine-1-carbonyl)-6,8-dioxa-3-aza-bicyclo[3.2.1]oct-3-yl]-pentanoic acid methyl ester], the “1% percent of inhibition with respect to pepstatin at the same concentration” value (from here on “1% percent of inhibition”) at SAP2 was found to be 37%.

For `COC(=O)[C@H](CC(C)C)N1C[C@H]2O[C@H](C(=O)N3CCOCC3)[C@@H](O2)C1=O` [Cpd 2, 4′-Methyl-(2′S)-2′-[(1R,5S,7S)-7-(morpholine-4-carbonyl)-2-oxo-6,8-dioxa-3-aza-bicyclo[3.2.1]oct-3-yl]-pentanoic acid methyl ester], the “1% percent of inhibition” value on SAP2 came to 32%.

In the case of `CCCCNC(=O)CC(O)CNC(=O)[C@H](CC(C)C)N1C[C@H]2O[C@H](C(=O)N3CCCCC3)[C@@H](O2)C1=O` (stereo partly drawn) [Cpd 3, (2S)-4-Methyl-2-[(1R,5S,7S)-2-oxo-7-(piperidine-1-carbonyl)-6,8-dioxa-3-aza-bicyclo[3.2.1]oct-3-yl]-pentanoic acid (3-butylcarbamoyl-2-hydroxy-propyl)-amide], on SAP2, the “1% percent of inhibition” value was found to be 22%.

As to `O=C(NCCO)C1OC2CN(Cc3ccccc3)C(=O)C1O2` (stereo not shown) [Cpd 4], the “1% percent of inhibition” value on SAP2 came to 36%.

Consider `CC(C)CC(CO)NC(=O)C1OC2CN(Cc3ccccc3)C(=O)C1O2` (stereo not shown) [Cpd 5], for which the “1% percent of inhibition” value at SAP2 is 41%.

For `O=C(C1OC2CN(Cc3ccccc3)C(=O)C1O2)N1CCCCC1` (stereo not shown) [Cpd 6], the “differences between treated and untreated control” value is listed as “statistically significant” with C. albicans SA40 (SA40, starting day 1, P<0.01, Mann-withney U test) and “statistically significant” in the assay with C. albicans AIDS68 (AIDS68, starting day 1, P<0.01, Mann-withney U test). The “Candida SA40 cells in vaginal fluid (CFU/ml)” value (“Candida SA40 cells” for short) with C. albicans SA40 (day 0) is reported as >100 ×1000; in the assay on C. albicans SA40 (day 1) it was 70 ± 1.3 ×1000; in the assay with C. albicans SA40 (day 2) it was 57.6 ± 1.4 ×1000; in the assay on C. albicans SA40 (day 5), 39.2 ± 3 ×1000; in the assay on C. albicans SA40 (day 7) it was 30.6 ± 1.8 ×1000; with C. albicans SA40 (day 14) it was 14.4 ± 1.6 ×1000. In addition, the results for the “Candida SA40 cells” value with C. albicans SA40 (day 21) and in the assay with C. albicans SA40 (day 28) were 8 ± 1.5 ×1000 and 1.2 ± 0.7 ×1000, respectively. Also, the “Candida AIDS68 cells in vaginal fluid (CFU/ml)” value (“Candida AIDS68 cells” below) with C. albicans AIDS68 (day 0) was >100 ± 0 ×1000; with C. albicans AIDS68 (day 1) it was 71.8 ± 1.3 ×1000; in the assay with C. albicans AIDS68 (day 2), 62.6 ± 1.5 ×1000; with C. albicans AIDS68 (day 5) it was 40.6 ± 1.4 ×1000; with C. albicans AIDS68 (day 7), 23.2 ± 1.4 ×1000; with C. albicans AIDS68 (day 14), 12.8 ± 1.2 ×1000. In addition, the “Candida AIDS68 cells” value is listed as 3.4 ± 1.7 ×1000 in the assay on C. albicans AIDS68 (day 21) and 0 ± 0 ×1000 with C. albicans AIDS68 (day 28). The “1% percent of inhibition” value at SAP2 is 42%.

On to `O=C(C1OC2CN(Cc3ccccc3)C(=O)C1O2)N1CCN(CCO)CC1` (stereo not shown) [Cpd 7], for which, at SAP2, the “1% percent of inhibition” value was 34%.

As to `O=C(C1OC2CN(Cc3ccccc3)C(=O)C1O2)N1CCOCC1` (stereo not shown) [Cpd 8], the “1% percent of inhibition” value at SAP2 is listed as 31%.

Turning to `CCOC(=O)N1CCN(C(=O)C2OC3CN(Cc4ccccc4)C(=O)C2O3)CC1` (stereo not shown) [Cpd 9], the “1% percent of inhibition” value on SAP2 was 37%.

For the compound `O=C(NCCCO)C1OC2CN(Cc3ccccc3)C(=O)C1O2` (stereo not shown) [Cpd 10], the “1% percent of inhibition” value on SAP2 is 12%.

For the compound `O=C(NC(CO)c1ccccc1)C1OC2CN(Cc3ccccc3)C(=O)C1O2` (stereo not shown) [Cpd 13], the “1% percent of inhibition” value on SAP2 is 16%.

Regarding `O=C(NC(CO)Cc1ccccc1)C1OC2CN(Cc3ccccc3)C(=O)C1O2` (stereo not shown) [Cpd 14], the “1% percent of inhibition” value at SAP2 is given as 19%.

For `O=C(NC(CO)Cc1ccccc1)C1OC2CN(Cc3ccccc3)C(=O)C1O2` (stereo not shown) [Cpd 15], the “1% percent of inhibition” value on SAP2 stood at 15%.

For the compound `CCCCNC(=O)C1OC2OC1C(=O)N(Cc1ccccc1)C2Cc1ccccc1` (stereo not shown) [Cpd 16], the “1% percent of inhibition” value on SAP2 was found to be 17%.

Turning to `CCCCCCNC(=O)C1OC2OC1C(=O)N(Cc1ccccc1)C2Cc1ccccc1` (stereo not shown) [Cpd 17], the “1% percent of inhibition” value at SAP2 is given as 21%.

Take `O=C(NCC(F)(F)F)C1OC2OC1C(=O)N(Cc1ccccc1)C2Cc1ccccc1` (stereo not shown) [Cpd 18]: the “1% percent of inhibition” value on SAP2 was determined as 17%.

With `O=C(C1OC2OC1C(=O)N(Cc1ccccc1)C2Cc1ccccc1)N1CCOCC1` (stereo not shown) [Cpd 19], the “1% percent of inhibition” value on SAP2 came to 25%.

In the case of `O=C(C1OC2OC1C(=O)N(Cc1ccccc1)C2Cc1ccccc1)N1CCSCC1` (stereo not shown) [Cpd 20], at SAP2, the “1% percent of inhibition” value came to 28%.

On to `O=C(C1OC2OC1C(=O)N(Cc1ccccc1)C2Cc1ccccc1)N1CCN(CCO)CC1` (stereo not shown) [Cpd 21], for which the “1% percent of inhibition” value at SAP2 turned out to be 31%.

On to `OC(Cn1cncn1)(Cn1cncn1)c1ccc(F)cc1F` [fluconazole], for which the “Candida AIDS68 cells” value in the assay with C. albicans AIDS68 (day 0) is reported as >100 ± 0 ×1000; with C. albicans AIDS68 (day 1), 100 ± 0 ×1000; in the assay on C. albicans AIDS68 (day 2), 93 ± 4.3 ×1000; in the assay with C. albicans AIDS68 (day 5) it was 61 ± 2.5 ×1000; in the assay with C. albicans AIDS68 (day 7) it was 44 ± 2.9 ×1000; in the assay on C. albicans AIDS68 (day 14), 18.7 ± 3.8 ×1000. The “Candida AIDS68 cells” value is on record as 11.7 ± 0.7 ×1000 in the assay on C. albicans AIDS68 (day 21) and 0 ± 0 ×1000 in the assay on C. albicans AIDS68 (day 28).

As to `CC(C)CC(=O)N[C@H](C(=O)N[C@H](C(=O)N[C@@H](CC(C)C)[C@@H](O)CC(=O)N[C@@H](C)C(=O)N[C@@H](CC(C)C)[C@@H](O)CC(=O)O)C(C)C)C(C)C` [pepstatin, reference compound] (Isovaleryl-VV[Sta]A[Sta]-OH), the “Candida SA40 cells” value is >100 ×1000 with C. albicans SA40 (day 0); 56.8 ± 2 ×1000 in the assay with C. albicans SA40 (day 1); 51 ± 1.2 ×1000 in the assay on C. albicans SA40 (day 2); 32.4 ± 2.5 ×1000 in the assay with C. albicans SA40 (day 5); 28 ± 1.5 ×1000 in the assay on C. albicans SA40 (day 7); 9.4 ± 1.4 ×1000 in the assay with C. albicans SA40 (day 14). The “Candida SA40 cells” value with C. albicans SA40 (day 21) was 5 ± 1.3 ×1000; in the assay on C. albicans SA40 (day 28), 0 ×1000. Moreover, the “Candida AIDS68 cells” value was >100 ± 0 ×1000 with C. albicans AIDS68 (day 0); 58.4 ± 1.0 ×1000 in the assay with C. albicans AIDS68 (day 1); 52.0 ± 1.3 ×1000 in the assay with C. albicans AIDS68 (day 2); 37.2 ± 1.6 ×1000 with C. albicans AIDS68 (day 5); 30.0 ± 1.2 ×1000 with C. albicans AIDS68 (day 7); 19.8 ± 0.8 ×1000 with C. albicans AIDS68 (day 14). In addition, the results for the “Candida AIDS68 cells” value with C. albicans AIDS68 (day 21) and with C. albicans AIDS68 (day 28) were 3.8 ± 1.9 ×1000 and 0 ± 0 ×1000, respectively.
